Laboratory results taken from patent US20220071996A1, “ORAL FORMULATIONS OF BRANAPLAM” (NOVARTIS AG, priority 2018, published 2022).
Values after ≈ are worked out from the molar mass of the structure shown. Like-named read-outs stand apart in the source and are kept apart here.

Legend:
juvenile dog = assay: 52-week chronic juvenile dog study; assay type: in vivo
[1] = phase solubility of branaplam in 2-hydroxypropyl-beta-cyclodextrin solutions; assay type: physicochemical; conditions: room temperature
[2] = measured log P of branaplam; assay type: physicochemical
[3] = solubility of branaplam in selected excipients; assay type: physicochemical; conditions: pH 4, aqueous with cosolvent or surfactant or cyclodextrin, thermodynamic from solid
Method: (§1) Solubility of branaplam was evaluated in excipients, other than cyclodextrin, such as Cremophor RH40, Tween 80, PG, PEG300, and glycerol. These excipients and concentrations were selected as they are suitable for paediatric formulations. None of the tested excipients was able to support development of a formulation comprising branaplam at a concentration high enough (i.e. about 2 mg/ml or higher) to keep the dose volume in a suitable range (Table 6).
as §1, with “5a).” for “6).”
Solubility of branaplam was measured as follows: stock solutions for the excipients at target concentrations were prepared using milli-Q water and adjusted using pH 4.0 buffer. […] Suspensions were stirred for 24 hours (using a magnetic stirrer) ensuring sufficient swirling and monitoring the temperature. The suspensions were filtered through 0.45 μm nominal pore size filter (e.g. using a PES syringe), and the concentration of branaplam in the filtrate was measured using HPLC (high performance liquid chromatography). The measurements were performed in duplicate and average of the values are reported.

## CC1(C)CC(Oc2ccc(-c3ccc(-c4cn[nH]c4)cc3O)nn2)CC(C)(C)N1 [branaplam, 5-(1H-pyrazol-4-yl)-2-(6-((2,2,6,6-tetramethylpiperidin-4-yl)oxy)pyridazin-3-yl)phenol]
Juvenile dog
  nerve findings: findings of nerve degeneration
[1]
  branaplam dissolved using 17.5% HP-b-CD: about 10 mg/mL
[2]
  logP: 2.6
[3]; 2 °C, in Cremophor RH 40 15.0% (w/v), pH 4.0 buffer, 2-8° C., read-out: Solubility (mg/mL) 2-8° C.
  solubility at 24 h: 1.19 mg/mL (≈ 3020 µM)
[3]; 25 °C, in Cremophor RH 40 15.0% (w/v), pH 4.0 buffer, RT, read-out: Solubility (mg/mL) RT
  solubility at 24 h: 1.32 mg/mL (≈ 3350 µM)
[3]; Cremophor RH 40 1.0% (w/v) aqueous solution in pH 4.0 buffer, 2 °C, in Cremophor RH 40 1.0% (w/v), pH 4.0 buffer, 2-8° C., read-out: Solubility (mg/mL) 2-8° C.
  solubility at 24 h: 0.17 mg/mL (≈ 432 µM)
[3]; Cremophor RH 40 1.0% (w/v) aqueous solution in pH 4.0 buffer, 25 °C, in Cremophor RH 40 1.0% (w/v), pH 4.0 buffer, RT, read-out: Solubility (mg/mL) RT
  solubility at 24 h: 0.28 mg/mL (≈ 712 µM)
[3]; Cremophor RH 40 3.5% (w/v) aqueous solution in pH 4.0 buffer, 2 °C, in Cremophor RH 40 3.5% (w/v), pH 4.0 buffer, 2-8° C., read-out: Solubility (mg/mL) 2-8° C.
  solubility at 24 h: 0.44 mg/mL (≈ 1120 µM)
[3]; Cremophor RH 40 3.5% (w/v) aqueous solution in pH 4.0 buffer, 25 °C, in Cremophor RH 40 3.5% (w/v), pH 4.0 buffer, RT, read-out: Solubility (mg/mL) RT
  solubility at 24 h: 0.53 mg/mL (≈ 1350 µM)
[3]; Cremophor RH 40 7.0% (w/v) aqueous solution in pH 4.0 buffer, 2 °C, in Cremophor RH 40 7.0% (w/v), pH 4.0 buffer, 2-8° C., read-out: Solubility (mg/mL) 2-8° C.
  solubility at 24 h: 0.71 mg/mL (≈ 1800 µM)
[3]; Cremophor RH 40 7.0% (w/v) aqueous solution in pH 4.0 buffer, 25 °C, in Cremophor RH 40 7.0% (w/v), pH 4.0 buffer, RT, read-out: Solubility (mg/mL) RT
  solubility at 24 h: 0.84 mg/mL (≈ 2130 µM)
[3]; aqueous excipient solution, 2 °C, in Glycerol 5.0% (w/w), 2-8° C., read-out: Solubility (mg/mL) 2-8° C.
  solubility at 24 h: 0.2 mg/mL (≈ 508 µM)
[3]; aqueous excipient solution, 2 °C, in Glycerol 10.0% (w/w), 2-8° C., read-out: Solubility (mg/mL) 2-8° C.
  solubility at 24 h: 0.19 mg/mL (≈ 483 µM)
[3]; aqueous excipient solution, 2 °C, in PEG 300 5.0% (w/w), 2-8° C., read-out: Solubility (mg/mL) 2-8° C.
  solubility at 24 h: 0.27 mg/mL (≈ 686 µM)
[3]; aqueous excipient solution, 2 °C, in PEG 300 10.0% (w/w), 2-8° C., read-out: Solubility (mg/mL) 2-8° C.
  solubility at 24 h: 0.34 mg/mL (≈ 864 µM)
[3]; aqueous excipient solution, 2 °C, in PEG 300 25.0% (w/w), 2-8° C., read-out: Solubility (mg/mL) 2-8° C.
  solubility at 24 h: 0.87 mg/mL (≈ 2210 µM)
[3]; aqueous excipient solution, 2 °C, in PEG 400 5.0% (w/w), 2-8° C., read-out: Solubility (mg/mL) 2-8° C.
  solubility at 24 h: 0.21 mg/mL (≈ 534 µM)
[3]; aqueous excipient solution, 2 °C, in PEG 400 10.0% (w/w), 2-8° C., read-out: Solubility (mg/mL) 2-8° C.
  solubility at 24 h: 0.45 mg/mL (≈ 1140 µM)
[3]; aqueous excipient solution, 2 °C, in PEG 400 25.0% (w/w), 2-8° C., read-out: Solubility (mg/mL) 2-8° C.
  solubility at 24 h: 0.93 mg/mL (≈ 2360 µM)
[3]; aqueous excipient solution, 2 °C, in Propylene glycol 5.0% (w/w), 2-8° C., read-out: Solubility (mg/mL) 2-8° C.
  solubility at 24 h: 0.16 mg/mL (≈ 407 µM)
[3]; aqueous excipient solution, 2 °C, in Propylene glycol 10.0% (w/w), 2-8° C., read-out: Solubility (mg/mL) 2-8° C.
  solubility at 24 h: 0.18 mg/mL (≈ 457 µM)
[3]; aqueous excipient solution, 2 °C, in Propylene glycol 25.0% (w/w), 2-8° C., read-out: Solubility (mg/mL) 2-8° C.
  solubility at 24 h: 0.42 mg/mL (≈ 1070 µM)
[3]; aqueous excipient solution, 2 °C, in Tween 80 0.5% (w/w), 2-8° C., read-out: Solubility (mg/mL) 2-8° C.
  solubility at 24 h: 0.16 mg/mL (≈ 407 µM)
[3]; aqueous excipient solution, 2 °C, in Tween 80 0.8% (w/w), 2-8° C., read-out: Solubility (mg/mL) 2-8° C.
  solubility at 24 h: 0.22 mg/mL (≈ 559 µM)
[3]; aqueous excipient solution, 2 °C, in Tween 80 1.5% (w/w), 2-8° C., read-out: Solubility (mg/mL) 2-8° C.
  solubility at 24 h: 0.29 mg/mL (≈ 737 µM)
[3]; aqueous excipient solution, 2 °C, in Tween 80 5.0% (w/w), 2-8° C., read-out: Solubility (mg/mL) 2-8° C.
  solubility at 24 h: 0.73 mg/mL (≈ 1860 µM)
[3]; aqueous excipient solution, 25 °C, in Glycerol 5.0% (w/w), RT, read-out: Solubility (mg/mL) RT
  solubility at 24 h: 0.18 mg/mL (≈ 457 µM)
[3]; aqueous excipient solution, 25 °C, in Glycerol 10.0% (w/w), RT, read-out: Solubility (mg/mL) RT
  solubility at 24 h: 0.22 mg/mL (≈ 559 µM)
[3]; aqueous excipient solution, 25 °C, in PEG 300 5.0% (w/w), RT, read-out: Solubility (mg/mL) RT
  solubility at 24 h: 0.39 mg/mL (≈ 991 µM)
[3]; aqueous excipient solution, 25 °C, in PEG 300 10.0% (w/w), RT, read-out: Solubility (mg/mL) RT
  solubility at 24 h: 0.64 mg/mL (≈ 1630 µM)
[3]; aqueous excipient solution, 25 °C, in PEG 300 25.0% (w/w), RT, read-out: Solubility (mg/mL) RT
  solubility at 24 h: 1.61 mg/mL (≈ 4090 µM)
[3]; aqueous excipient solution, 25 °C, in PEG 400 5.0% (w/w), RT, read-out: Solubility (mg/mL) RT
  solubility at 24 h: 0.39 mg/mL (≈ 991 µM)
[3]; aqueous excipient solution, 25 °C, in PEG 400 10.0% (w/w), RT, read-out: Solubility (mg/mL) RT
  solubility at 24 h: 0.63 mg/mL (≈ 1600 µM)
[3]; aqueous excipient solution, 25 °C, in PEG 400 25.0% (w/w), RT, read-out: Solubility (mg/mL) RT
  solubility at 24 h: 1.47 mg/mL (≈ 3740 µM)
[3]; aqueous excipient solution, 25 °C, in Propylene glycol 5.0% (w/w), RT, read-out: Solubility (mg/mL) RT
  solubility at 24 h: 0.27 mg/mL (≈ 686 µM)
[3]; aqueous excipient solution, 25 °C, in Propylene glycol 10.0% (w/w), RT, read-out: Solubility (mg/mL) RT
  solubility at 24 h: 0.37 mg/mL (≈ 940 µM)
[3]; aqueous excipient solution, 25 °C, in Propylene glycol 25.0% (w/w), RT, read-out: Solubility (mg/mL) RT
  solubility at 24 h: 0.94 mg/mL (≈ 2390 µM)
[3]; aqueous excipient solution, 25 °C, in Tween 80 0.5% (w/w), RT, read-out: Solubility (mg/mL) RT
  solubility at 24 h: 0.25 mg/mL (≈ 635 µM)
[3]; aqueous excipient solution, 25 °C, in Tween 80 0.8% (w/w), RT, read-out: Solubility (mg/mL) RT
  solubility at 24 h: 0.28 mg/mL (≈ 712 µM)
[3]; aqueous excipient solution, 25 °C, in Tween 80 1.5% (w/w), RT, read-out: Solubility (mg/mL) RT
  solubility at 24 h: 0.41 mg/mL (≈ 1040 µM)
[3]; aqueous excipient solution, 25 °C, in Tween 80 5.0% (w/w), RT, read-out: Solubility (mg/mL) RT
  solubility at 24 h: 0.89 mg/mL (≈ 2260 µM)
